Numbering of substitutions follows the chain as printed.
Assays:
[1] = target: T1, β-glucocerebrosidase, p.L444P mutation (GM08760A fibroblasts) (Homo sapiens, UniProt P04062, L483P); test: Enhancement of β-glucocerebrosidase activity measured in Gaucher disease fibroblasts (L444P); type: cell-based; settings: increase in enzyme activity vs non-treated cells; GBA fibroblasts bearing L444P; concentrations between 6 and 50 μM; 4 days incubation
T1 construct: host or cells: human Gaucher patient fibroblasts GM08760A, homozygous L444P
T1 sequence (P04062 40-536 L483P): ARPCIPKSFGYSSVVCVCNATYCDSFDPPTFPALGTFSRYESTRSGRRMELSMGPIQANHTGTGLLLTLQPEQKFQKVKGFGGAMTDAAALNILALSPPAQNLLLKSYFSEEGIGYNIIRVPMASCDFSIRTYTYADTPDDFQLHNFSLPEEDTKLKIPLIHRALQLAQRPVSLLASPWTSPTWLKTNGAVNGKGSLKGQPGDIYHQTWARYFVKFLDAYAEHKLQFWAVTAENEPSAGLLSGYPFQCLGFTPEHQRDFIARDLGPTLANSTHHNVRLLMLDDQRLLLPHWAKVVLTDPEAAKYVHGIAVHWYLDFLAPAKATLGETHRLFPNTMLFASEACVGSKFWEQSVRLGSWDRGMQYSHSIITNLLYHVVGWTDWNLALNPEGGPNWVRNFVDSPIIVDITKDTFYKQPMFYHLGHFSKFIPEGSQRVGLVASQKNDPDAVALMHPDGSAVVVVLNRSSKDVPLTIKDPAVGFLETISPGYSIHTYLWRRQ
Description: Enhancement of β-Glucocerebrosidase Activity Measured in Gaucher Disease Fibroblasts Materials
Human fibroblasts from a patient with Gaucher disease homozygous for p.L444P mutation (GM08760A) were purchased from Coriell Institute for Medical Research (Camden, N.J., USA).
(§1) Fibroblasts were seeded at 5×10^3 cells per well in 96-well cell culture plates (Corning, N.Y., USA) in Dulbecco's Modified Eagle's Media (DMEM) supplemented with 10% of fetal bovine serum (FBS), 1% penicillin/streptomycin (P/S) (Thermo Fisher Scientific, Waltham, Mass., USA) and grown at 37° C., 5% CO2 overnight for cell attachment. Subsequently, cells were incubated in the absence or presence of the compounds at the desired concentration for 4 days. After incubation, cells were washed twice with phosphate-buffered saline (PBS) and enzyme activity assay was performed.
(§2) β-glucocerebrosidase activity in intact cultured cells was measured by using 4-methylumbelliferyl-β-D-glucopyranoside substrate (Apollo Scientific, UK). Briefly, cells were incubated with 4-MU-β-D-glucopyranoside in 0.1 M acetate buffer pH=4 at 37° C. for 1 hour. […] The liberated 4-MU was measured on a GloMax Discover plate reader (Promega, Madison, Wis., USA) with and excitation at 340 nm and emission at 460 nm. Enzyme activities were expressed in treated cells as X-fold increase in comparison with non-treated cells (X=1 represents no enhancement).
The capacity of the compounds of the disclosure to produce an increase in enzyme activity in GBA fibroblasts bearing L444P at concentrations between 6 and 50 μM is denoted as follows:
(§3) The following compounds listed in Table 2 were purchased (from Enamine, Princeton, Asinex, Vistas-M, and OSSK_541352) and tested in the assay as described above.

[2] = target: T2, β-glucocerebrosidase Wild Type (WT) (Homo sapiens, UniProt P04062); test: β-glucocerebrosidase activity enhancement, Wild Type (WT); type: cell-based; settings: increase in enzyme activity vs non-treated cells
T2 construct: endogenous in cells
T2 sequence (P04062 40-536): T1 sequence (P04062 40-536 L483P) with P444L
Description: as §1, §2, §3

Row | SMILES | Activity L444P [1] | Activity Wild Type (WT) [2]
1 | COc1ccccc1Nc1nc(N)nc(CN(C)Cc2ccccc2)n1 [Example 10, 6-((Benzyl (methyl)amino)methyl)-N^2-(2-methoxyphenyl)-1,3,5-triazine-2,4-diamine] | C (Increase in comparison with non-treated of 1.2-1.7 fold is shown as C) | B (Increase in comparison with non-treated of >1.7-2.0 fold is shown as B)
2 | CN(Cc1ccccc1)Cc1nc(N)nc(Nc2cccc(C#N)c2)n1 [Example 12, 3-(4-Amino-6-((benzyl(methyl)amino)methyl)-1,3,5-triazin-2-ylamino)benzonitrile] | C (Increase in comparison with non-treated of 1.2-1.7 fold is shown as C) | B (Increase in comparison with non-treated of >1.7-2.0 fold is shown as B)
3 | Cc1ccc(Nc2cc(CN(C)c3ccccc3)nc(N)n2)cc1 [Example 13, 6-((Methyl(phenyl)amino)methyl)-N^4-(p-tolyl)pyrimidine-2,4-diamine] | B (Increase in comparison with non-treated of >1.7-2.0 fold is shown as B) | B (Increase in comparison with non-treated of >1.7-2.0 fold is shown as B)
4 | Cc1ccc(Nc2cc(CN3CCCc4ccccc43)nc(N)n2)cc1 [Example 14, 6-((3,4-Dihydroquinolin-1(2H)-yl)methyl)-N^4-(p-tolyl)pyrimidine-2,4-diamine] | C (Increase in comparison with non-treated of 1.2-1.7 fold is shown as C) | B (Increase in comparison with non-treated of >1.7-2.0 fold is shown as B)
5 | Cc1cccc(Nc2cc(CN(C)Cc3ccccc3)nc(N)n2)c1 [Example 16] | B (Increase in comparison with non-treated of >1.7-2.0 fold is shown as B) | A (Increase in comparison with non-treated of >2.0 fold is shown as A)
6 | COc1ccc(Nc2cc(CN(C)Cc3ccccc3)nc(N)n2)cc1 [Example 18, 6-((benzyl(methyl)amino)methyl)-N^4-(4-methoxyphenyl)pyrimidine-2,4-diamine] | B (Increase in comparison with non-treated of >1.7-2.0 fold is shown as B) | B (Increase in comparison with non-treated of >1.7-2.0 fold is shown as B)
7 | CN(Cc1ccccc1)Cc1cc(Nc2ccc(C#N)cc2)nc(N)n1 [Example 19, 4-(2-amino-6-((benzyl(methyl)amino)methyl)pyrimidin-4-ylamino)benzonitrile] | B (Increase in comparison with non-treated of >1.7-2.0 fold is shown as B) | B (Increase in comparison with non-treated of >1.7-2.0 fold is shown as B)
8 | CN(Cc1ccccc1)Cc1cc(Nc2cccc(Cl)c2)nc(N)n1 [Example 20] | B (Increase in comparison with non-treated of >1.7-2.0 fold is shown as B) | B (Increase in comparison with non-treated of >1.7-2.0 fold is shown as B)
9 | CN(Cc1ccccc1)Cc1nc(N)nc(Nc2cccnc2)n1 [Example 26, 6-((Benzyl(methyl)amino)methyl)-N^2-(pyridin-3-yl)-1,3,5-triazine-2,4-diamine] | C (Increase in comparison with non-treated of 1.2-1.7 fold is shown as C) | B (Increase in comparison with non-treated of >1.7-2.0 fold is shown as B)
10 | Cc1ccccc1Nc1cc(CN(C)Cc2ccccc2)nc(N)n1 [Example 28, 6-((Benzyl(methyl)amino)methyl)-N^4-o-tolylpyrimidine-2,4-diamine] | B (Increase in comparison with non-treated of >1.7-2.0 fold is shown as B) | B (Increase in comparison with non-treated of >1.7-2.0 fold is shown as B)
11 | CN(Cc1ccccc1)Cc1cc(Nc2ccc3ccncc3c2)nc(N)n1 [Example 30, 6-((Benzyl(methyl)amino)methyl)-N^4-(isoquinolin-7-yl)pyrimidine-2,4-diamine] | A (Increase in comparison with non-treated of >2.0 fold is shown as A) | B (Increase in comparison with non-treated of >1.7-2.0 fold is shown as B)
12 | COc1ccc(CN(C)Cc2cc(Nc3ccc(C)cc3)nc(N)n2)cc1 [Example 33, 6-(((4-Methoxybenzyl)(methyl)amino)methyl)-N^4-p-tolylpyrimidine-2,4-diamine] | B (Increase in comparison with non-treated of >1.7-2.0 fold is shown as B) | B (Increase in comparison with non-treated of >1.7-2.0 fold is shown as B)
13 | COc1cccc(Nc2cc(CN(C)Cc3cccc(C#N)c3)nc(N)n2)c1 [Example 37, 3-((((2-Amino-6-(3-methoxyphenylamino)pyrimidin-4-yl)methyl)(methyl)amino)methyl) benzonitrile] | C (Increase in comparison with non-treated of 1.2-1.7 fold is shown as C) | B (Increase in comparison with non-treated of >1.7-2.0 fold is shown as B)
14 | COc1ccc(OC)c(Nc2cc(CN(C)Cc3ccccc3)nc(N)n2)c1 [Example 41, 6-((Benzyl(methyl)amino)methyl)-N^4-(2,5-dimethoxyphenyl)pyrimidine-2,4-diamine] | B (Increase in comparison with non-treated of >1.7-2.0 fold is shown as B) | C (Increase in comparison with non-treated of 1.2-1.7 fold is shown as C)
15 | COc1cccc(Nc2cc(CN(C)Cc3ccccc3)nc(N)n2)c1OC [Example 42, 6-((Benzyl(methyl)amino)methyl)-N^4-(2,3-dimethoxyphenyl)pyrimidine-2,4-diamine] | C (Increase in comparison with non-treated of 1.2-1.7 fold is shown as C) | B (Increase in comparison with non-treated of >1.7-2.0 fold is shown as B)
16 | CN(Cc1ccccc1)Cc1cc(Nc2cccc3c2OCO3)nc(N)n1 [Example 43, N^4-(Benzo[d][1,3]dioxol-4-yl)-6-((benzyl(methyl)amino)methyl)pyrimidine-2,4-diamine] | C (Increase in comparison with non-treated of 1.2-1.7 fold is shown as C) | C (Increase in comparison with non-treated of 1.2-1.7 fold is shown as C)
17 | COc1cccc(Nc2cc(CN(C)Cc3ccc(F)cc3)nc(N)n2)c1 [Example 45, 6-(((4-Fluorobenzyl)(methyl)amino)methyl)-N^4-(3-methoxyphenyl)pyrimidine-2,4-diamine] | C (Increase in comparison with non-treated of 1.2-1.7 fold is shown as C) | C (Increase in comparison with non-treated of 1.2-1.7 fold is shown as C)
18 | COc1ccc(C)cc1Nc1cc(CN(C)Cc2ccccc2)nc(N)n1 [Example 46, 6-((Benzyl(methyl)amino)methyl)-N^4-(2-methoxy-5-methylphenyl)pyrimidine-2,4-diamine] | B (Increase in comparison with non-treated of >1.7-2.0 fold is shown as B) | B (Increase in comparison with non-treated of >1.7-2.0 fold is shown as B)
19 | COc1ccc(CN(C)Cc2cc(Nc3cccc(C)c3)nc(N)n2)cc1 [Example 47, 6-(((4-Methoxybenzyl)(methyl)amino)methyl)-N^4-m-tolylpyrimidine-2,4-diamine] | C (Increase in comparison with non-treated of 1.2-1.7 fold is shown as C) | C (Increase in comparison with non-treated of 1.2-1.7 fold is shown as C)

Reference: patent US11174242B2, “Heteroaryl compounds and their use” (Minoryx Therapeutics S.L., priority 2016, dated 2021)
